{"source": "paper doi:10.1101/2021.04.08.439011v1", "about": "(biorxiv, 2021)", "key": {"MARK1": {"target": "MARK1 (Homo sapiens, UniProt Q9P0L2)", "details": "1 µM; binder"}, "IKK-alpha": {"target": "IKK-alpha (Homo sapiens, UniProt O15111)", "sequence (O15111 whole entry)": "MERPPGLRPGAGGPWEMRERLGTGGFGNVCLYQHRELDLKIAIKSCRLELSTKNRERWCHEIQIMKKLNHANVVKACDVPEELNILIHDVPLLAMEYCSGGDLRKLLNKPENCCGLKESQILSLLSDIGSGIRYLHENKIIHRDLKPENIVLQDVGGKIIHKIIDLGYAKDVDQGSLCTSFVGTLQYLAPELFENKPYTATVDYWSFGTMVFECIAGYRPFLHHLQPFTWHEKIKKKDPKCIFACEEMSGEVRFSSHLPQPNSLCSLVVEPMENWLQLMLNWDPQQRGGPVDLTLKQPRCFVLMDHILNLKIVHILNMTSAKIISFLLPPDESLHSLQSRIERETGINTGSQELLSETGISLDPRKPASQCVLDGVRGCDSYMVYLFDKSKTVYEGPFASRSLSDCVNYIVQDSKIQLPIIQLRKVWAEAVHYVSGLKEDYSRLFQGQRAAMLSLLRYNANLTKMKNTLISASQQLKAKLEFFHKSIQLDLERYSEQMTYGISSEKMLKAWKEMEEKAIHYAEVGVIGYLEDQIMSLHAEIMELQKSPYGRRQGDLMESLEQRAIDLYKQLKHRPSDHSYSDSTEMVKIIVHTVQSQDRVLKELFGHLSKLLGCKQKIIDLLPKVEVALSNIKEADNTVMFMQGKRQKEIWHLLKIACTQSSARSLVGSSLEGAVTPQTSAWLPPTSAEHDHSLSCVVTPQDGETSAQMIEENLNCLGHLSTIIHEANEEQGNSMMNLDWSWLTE", "details": "1 µM; binder"}, "FLT3(R834Q)": {"target": "FLT3(R834Q) (Homo sapiens, UniProt P36888, R834Q)", "details": "1 µM; binder"}, "ALK(L1196M)": {"target": "ALK(L1196M) (Homo sapiens, UniProt Q9UM73, L1196M)", "details": "1 µM; binder"}, "EPHA2": {"target": "EPHA2 (Homo sapiens, UniProt P29317)", "details": "1 µM; binder"}, "ALK(C1156Y)": {"target": "ALK(C1156Y) (Homo sapiens, UniProt Q9UM73, C1156Y)", "details": "1 µM; binder"}, "BMPR1A": {"target": "BMPR1A (Homo sapiens, UniProt P36894)", "details": "1 µM; binder"}, "PIK3CA": {"target": "PIK3CA (Homo sapiens, UniProt P42336)", "details": "1 µM; binder"}, "EPHB4": {"target": "EPHB4 (Homo sapiens, UniProt P54760)", "details": "1 µM; binder"}, "CAMK4": {"target": "CAMK4 (Homo sapiens, UniProt Q16566)", "sequence (Q16566 whole entry)": "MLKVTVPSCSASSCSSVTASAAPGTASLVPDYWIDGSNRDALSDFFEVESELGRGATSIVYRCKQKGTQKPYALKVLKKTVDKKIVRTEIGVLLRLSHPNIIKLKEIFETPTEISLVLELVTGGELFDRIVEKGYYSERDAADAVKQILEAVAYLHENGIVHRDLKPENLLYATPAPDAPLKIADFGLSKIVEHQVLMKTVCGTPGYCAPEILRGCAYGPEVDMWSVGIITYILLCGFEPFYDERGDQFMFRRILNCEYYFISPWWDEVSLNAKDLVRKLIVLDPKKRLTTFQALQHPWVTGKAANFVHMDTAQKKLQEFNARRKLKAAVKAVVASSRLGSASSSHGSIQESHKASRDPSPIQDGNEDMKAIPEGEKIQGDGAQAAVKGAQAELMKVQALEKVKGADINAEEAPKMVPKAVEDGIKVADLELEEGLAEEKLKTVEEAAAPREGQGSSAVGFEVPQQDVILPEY", "details": "1 µM; binder"}, "CLK4": {"target": "CLK4 (Homo sapiens, UniProt Q9HAZ1)", "details": "1 µM; binder"}, "RPS6KA6": {"target": "RPS6KA6 (Homo sapiens, UniProt Q9UK32)", "sequence (Q9UK32 whole entry)": "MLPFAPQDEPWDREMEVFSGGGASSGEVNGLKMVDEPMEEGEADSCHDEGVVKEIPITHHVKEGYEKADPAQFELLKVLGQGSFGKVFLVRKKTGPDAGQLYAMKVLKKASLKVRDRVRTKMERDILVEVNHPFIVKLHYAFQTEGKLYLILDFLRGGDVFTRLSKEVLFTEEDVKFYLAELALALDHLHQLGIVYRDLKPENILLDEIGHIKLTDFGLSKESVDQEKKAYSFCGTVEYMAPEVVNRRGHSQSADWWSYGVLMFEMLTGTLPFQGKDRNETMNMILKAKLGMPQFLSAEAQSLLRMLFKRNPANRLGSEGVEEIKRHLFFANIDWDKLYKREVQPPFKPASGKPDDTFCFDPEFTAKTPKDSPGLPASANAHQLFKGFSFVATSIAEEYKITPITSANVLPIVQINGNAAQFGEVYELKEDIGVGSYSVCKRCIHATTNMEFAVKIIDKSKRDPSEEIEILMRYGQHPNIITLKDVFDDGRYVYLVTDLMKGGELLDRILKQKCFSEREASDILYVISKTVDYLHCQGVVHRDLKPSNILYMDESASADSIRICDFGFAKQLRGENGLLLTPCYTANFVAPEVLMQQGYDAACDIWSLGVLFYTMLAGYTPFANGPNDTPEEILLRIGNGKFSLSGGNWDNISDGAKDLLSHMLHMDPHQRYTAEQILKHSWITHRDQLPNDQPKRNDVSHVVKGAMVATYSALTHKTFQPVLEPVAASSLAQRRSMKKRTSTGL", "details": "binder"}, "CSNK1A1": {"target": "CSNK1A1 (Homo sapiens, UniProt P48729)", "details": "1 µM; binder"}, "PHKG1": {"target": "PHKG1 (Homo sapiens, UniProt Q16816)", "details": "1 µM; binder"}, "RIPK1": {"target": "RIPK1 (Homo sapiens, UniProt Q13546)", "sequence (Q13546 whole entry)": "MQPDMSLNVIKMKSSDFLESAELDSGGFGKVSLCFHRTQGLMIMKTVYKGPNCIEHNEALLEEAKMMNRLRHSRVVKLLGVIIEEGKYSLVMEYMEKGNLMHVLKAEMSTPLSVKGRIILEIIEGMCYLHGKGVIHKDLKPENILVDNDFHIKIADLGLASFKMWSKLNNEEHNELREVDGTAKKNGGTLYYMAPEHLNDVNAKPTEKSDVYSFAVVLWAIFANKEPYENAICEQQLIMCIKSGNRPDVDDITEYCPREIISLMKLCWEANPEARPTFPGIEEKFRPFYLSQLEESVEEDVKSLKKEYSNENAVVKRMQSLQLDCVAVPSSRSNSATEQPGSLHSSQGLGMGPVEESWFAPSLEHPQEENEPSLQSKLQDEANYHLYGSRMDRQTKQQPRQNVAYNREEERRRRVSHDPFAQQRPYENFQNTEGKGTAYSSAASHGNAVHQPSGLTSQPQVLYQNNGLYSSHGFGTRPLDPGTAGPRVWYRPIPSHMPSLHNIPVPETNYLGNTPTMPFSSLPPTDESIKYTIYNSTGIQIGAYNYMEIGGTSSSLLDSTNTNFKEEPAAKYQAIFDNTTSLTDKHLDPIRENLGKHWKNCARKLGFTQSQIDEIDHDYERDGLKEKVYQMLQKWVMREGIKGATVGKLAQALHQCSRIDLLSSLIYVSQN", "details": "1 µM; binder"}, "HPK1": {"target": "HPK1 (Homo sapiens, UniProt Q92918)", "details": "1 µM; binder"}, "TTK": {"target": "TTK (Homo sapiens, UniProt P33981)", "details": "1 µM; binder"}, "CSNK1A1L": {"target": "CSNK1A1L (Homo sapiens, UniProt Q8N752)", "details": "1 µM; binder"}, "PIP4K2C": {"target": "PIP4K2C (Homo sapiens, UniProt Q8TBX8)", "details": "1 µM; binder"}, "NEK5": {"target": "NEK5 (Homo sapiens, UniProt Q6P3R8)", "sequence (Q6P3R8 whole entry)": "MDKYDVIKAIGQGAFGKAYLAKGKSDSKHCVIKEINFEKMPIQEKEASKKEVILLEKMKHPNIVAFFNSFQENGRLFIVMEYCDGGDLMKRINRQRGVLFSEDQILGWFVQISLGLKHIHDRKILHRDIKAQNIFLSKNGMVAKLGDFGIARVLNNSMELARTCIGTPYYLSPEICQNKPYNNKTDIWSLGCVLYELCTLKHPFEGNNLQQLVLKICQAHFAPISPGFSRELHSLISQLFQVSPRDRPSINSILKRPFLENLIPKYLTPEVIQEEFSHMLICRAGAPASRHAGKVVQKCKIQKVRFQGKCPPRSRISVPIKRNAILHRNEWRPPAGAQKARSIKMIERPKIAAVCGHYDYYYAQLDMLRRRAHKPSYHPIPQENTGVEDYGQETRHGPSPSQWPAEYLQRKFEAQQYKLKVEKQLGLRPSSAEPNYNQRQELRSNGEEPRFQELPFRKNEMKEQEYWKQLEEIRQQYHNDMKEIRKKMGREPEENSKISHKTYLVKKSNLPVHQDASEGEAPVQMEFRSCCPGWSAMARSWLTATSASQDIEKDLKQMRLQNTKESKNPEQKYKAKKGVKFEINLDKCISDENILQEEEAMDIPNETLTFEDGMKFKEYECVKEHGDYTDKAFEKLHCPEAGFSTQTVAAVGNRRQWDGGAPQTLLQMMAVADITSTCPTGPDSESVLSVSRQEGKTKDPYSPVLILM", "details": "1 µM; binder"}, "STK16": {"target": "STK16 (Homo sapiens, UniProt O75716)", "sequence (O75716 whole entry)": "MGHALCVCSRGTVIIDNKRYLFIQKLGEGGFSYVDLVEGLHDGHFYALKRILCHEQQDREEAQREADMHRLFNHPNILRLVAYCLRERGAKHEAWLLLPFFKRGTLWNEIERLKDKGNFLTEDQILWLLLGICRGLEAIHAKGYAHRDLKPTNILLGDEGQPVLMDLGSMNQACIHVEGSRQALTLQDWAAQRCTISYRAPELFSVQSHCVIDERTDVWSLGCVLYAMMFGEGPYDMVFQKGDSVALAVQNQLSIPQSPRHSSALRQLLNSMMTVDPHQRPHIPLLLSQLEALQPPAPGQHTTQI", "details": "1 µM; binder"}, "ERK3": {"target": "ERK3 (Homo sapiens, UniProt Q16659)", "details": "1 µM; binder"}, "EPHB6": {"target": "EPHB6 (Homo sapiens, UniProt O15197)", "details": "1 µM; binder"}, "LATS1": {"target": "LATS1 (Homo sapiens, UniProt O95835)", "details": "1 µM; binder"}, "MST2": {"target": "MST2 (Homo sapiens, UniProt Q13188)", "details": "1 µM; binder"}, "PIK3CG": {"target": "PIK3CG (Homo sapiens, UniProt P48736)", "details": "1 µM; binder"}, "TNNI3K": {"target": "TNNI3K (Homo sapiens, UniProt Q59H18)", "sequence (Q59H18 whole entry)": "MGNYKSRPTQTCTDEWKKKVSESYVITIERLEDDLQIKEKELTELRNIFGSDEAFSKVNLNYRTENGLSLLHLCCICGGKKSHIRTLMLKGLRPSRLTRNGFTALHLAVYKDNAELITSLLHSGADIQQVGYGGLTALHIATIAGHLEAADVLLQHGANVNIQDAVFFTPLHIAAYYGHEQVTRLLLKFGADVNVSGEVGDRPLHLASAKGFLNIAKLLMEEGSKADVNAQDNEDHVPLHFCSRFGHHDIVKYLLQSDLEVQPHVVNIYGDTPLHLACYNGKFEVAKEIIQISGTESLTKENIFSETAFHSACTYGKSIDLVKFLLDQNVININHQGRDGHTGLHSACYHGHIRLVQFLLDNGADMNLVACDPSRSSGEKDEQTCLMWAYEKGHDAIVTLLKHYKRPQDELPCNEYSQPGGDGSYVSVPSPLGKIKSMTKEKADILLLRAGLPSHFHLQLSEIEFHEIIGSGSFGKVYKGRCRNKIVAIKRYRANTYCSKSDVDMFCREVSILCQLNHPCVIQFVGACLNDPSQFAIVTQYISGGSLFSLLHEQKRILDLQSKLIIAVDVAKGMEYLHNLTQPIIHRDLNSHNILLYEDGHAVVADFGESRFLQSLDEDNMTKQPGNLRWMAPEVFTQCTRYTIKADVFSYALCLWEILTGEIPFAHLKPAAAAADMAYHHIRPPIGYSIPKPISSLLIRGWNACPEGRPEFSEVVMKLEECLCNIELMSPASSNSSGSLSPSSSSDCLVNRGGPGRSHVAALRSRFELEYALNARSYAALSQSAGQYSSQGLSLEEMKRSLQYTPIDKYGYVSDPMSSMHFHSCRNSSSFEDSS", "details": "1 µM; binder"}, "RIPK2": {"target": "RIPK2 (Homo sapiens, UniProt O43353)", "details": "1 µM; binder"}, "CAMKK1": {"target": "CAMKK1 (Homo sapiens, UniProt Q8N5S9)", "details": "1 µM; binder"}, "YES": {"target": "YES (Homo sapiens, UniProt P07947)", "sequence (P07947 whole entry)": "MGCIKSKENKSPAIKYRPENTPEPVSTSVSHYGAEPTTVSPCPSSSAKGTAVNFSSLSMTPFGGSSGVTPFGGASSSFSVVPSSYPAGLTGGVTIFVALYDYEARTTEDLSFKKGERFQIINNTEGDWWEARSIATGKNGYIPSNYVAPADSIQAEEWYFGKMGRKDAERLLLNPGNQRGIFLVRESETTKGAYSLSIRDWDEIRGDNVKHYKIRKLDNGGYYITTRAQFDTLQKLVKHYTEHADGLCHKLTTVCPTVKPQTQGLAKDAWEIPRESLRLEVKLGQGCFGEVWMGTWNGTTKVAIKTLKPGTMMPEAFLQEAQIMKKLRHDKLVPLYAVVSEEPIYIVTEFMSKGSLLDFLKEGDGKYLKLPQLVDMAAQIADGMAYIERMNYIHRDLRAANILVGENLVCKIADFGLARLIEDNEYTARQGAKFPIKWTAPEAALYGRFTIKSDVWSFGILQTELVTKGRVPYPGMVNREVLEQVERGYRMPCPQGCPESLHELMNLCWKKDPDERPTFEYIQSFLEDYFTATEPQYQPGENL", "details": "1 µM; binder"}}, "note": "Read-outs that look alike come from different tables or passages of the source."}
{"compound": "CNc1ncc2cc(-c3ccc(-c4cccc(C)n4)cc3Cl)c(=O)n(C[C@H]3OC[C@H](N)CO3)c2n1", "note": "[compound 6, G-5555]", "values": [{"measurement": "Percent Control", "setting": "MARK1", "result": 68, "unit": "%"}, {"measurement": "Percent Control", "setting": "IKK-alpha", "result": 98, "unit": "%"}, {"measurement": "Percent Control", "setting": "FLT3(R834Q)", "result": 100, "unit": "%"}, {"measurement": "Percent Control", "setting": "ALK(L1196M)", "result": 100, "unit": "%"}, {"measurement": "Percent Control", "setting": "EPHA2", "result": 100, "unit": "%"}, {"measurement": "Percent Control", "setting": "ALK(C1156Y)", "result": 100, "unit": "%"}, {"measurement": "Percent Control", "setting": "BMPR1A", "result": 85, "unit": "%"}, {"measurement": "Percent Control", "setting": "PIK3CA", "result": 100, "unit": "%"}, {"measurement": "Percent Control", "setting": "EPHB4", "result": 100, "unit": "%"}, {"measurement": "Percent Control", "setting": "CAMK4", "result": 96, "unit": "%"}, {"measurement": "Percent Control", "setting": "CLK4", "result": 100, "unit": "%"}, {"measurement": "Percent Control", "setting": "RPS6KA6; Kin.Dom.1 N-terminal", "result": 95, "unit": "%"}, {"measurement": "Percent Control", "setting": "RPS6KA6; Kin.Dom.2 C-terminal, 1 µM", "result": 92, "unit": "%"}, {"measurement": "Percent Control", "setting": "CSNK1A1", "result": 89, "unit": "%"}, {"measurement": "Percent Control", "setting": "PHKG1", "result": 100, "unit": "%"}, {"measurement": "Percent Control", "setting": "RIPK1", "result": 100, "unit": "%"}, {"measurement": "Percent Control", "setting": "HPK1", "result": 26, "unit": "%"}, {"measurement": "Percent Control", "setting": "TTK", "result": 97, "unit": "%"}, {"measurement": "Percent Control", "setting": "CSNK1A1L", "result": 100, "unit": "%"}, {"measurement": "Percent Control", "setting": "PIP4K2C", "result": 26, "unit": "%"}, {"measurement": "Percent Control", "setting": "NEK5", "result": 100, "unit": "%"}, {"measurement": "Percent Control", "setting": "STK16", "result": 69, "unit": "%"}, {"measurement": "Percent Control", "setting": "ERK3", "result": 100, "unit": "%"}, {"measurement": "Percent Control", "setting": "EPHB6", "result": 9, "unit": "%"}, {"measurement": "Percent Control", "setting": "LATS1", "result": 41, "unit": "%"}, {"measurement": "Percent Control", "setting": "MST2", "result": 27, "unit": "%"}, {"measurement": "Percent Control", "setting": "PIK3CG", "result": 93, "unit": "%"}, {"measurement": "Percent Control", "setting": "TNNI3K", "result": 98, "unit": "%"}, {"measurement": "Percent Control", "setting": "RIPK2", "result": 65, "unit": "%"}, {"measurement": "Percent Control", "setting": "CAMKK1", "result": 100, "unit": "%"}, {"measurement": "Percent Control", "setting": "YES", "result": 100, "unit": "%"}]}
